Measured values from PubChem BioAssay AID2060618 (Molecular Pharmacology Branch, DTP, NCI, 2025).
pIC50: −log10 of the molar value.

System: 454973-116-R2-J3-PDC spheroids, percent test/control viability
Assay: Anticancer human tumor 454973-116-R2-J3-PDC patient-derived pancreatic carcinoma cell line growth inhibition [CLK]
Conditions: spheroids with HUVEC and MSC; for pIC50: curve of first compound; for viability, T/C: stronger effect = lower value
Outline: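 Patient-derived tumor cells grown as complex spheroids with HUVEC endothelial cells and mesenchymal stem cells, treated with drug combinations. Concentrations descend in half-log steps from near clinical Cmax, or from 10 microM if Cmax unknown.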

[1] = second compound 0.0316 µM, first compound 0.0316 µM
[2] = second compound 0.0316 µM, first compound 0.1 µM
[3] = second compound 0.0316 µM, first compound 0.316 µM
[4] = second compound 0.0316 µM, first compound 1 µM
[5] = second compound 0.0316 µM, first compound 3.16 µM
[6] = second compound 0.0316 µM, first compound 10 µM
[7] = second compound 0.1 µM, first compound 0.0316 µM
[8] = second compound 0.1 µM, first compound 0.1 µM
[9] = second compound 0.1 µM, first compound 0.316 µM
[10] = second compound 0.1 µM, first compound 1 µM
[11] = second compound 0.1 µM, first compound 3.16 µM
[12] = second compound 0.1 µM, first compound 10 µM
[13] = second compound 0.316 µM, first compound 0.0316 µM
[14] = second compound 0.316 µM, first compound 0.1 µM
[15] = second compound 0.316 µM, first compound 0.316 µM
[16] = second compound 0.316 µM, first compound 1 µM
[17] = second compound 0.316 µM, first compound 3.16 µM
[18] = second compound 0.316 µM, first compound 10 µM
[19] = second compound 1 µM, first compound 0.0316 µM
[20] = second compound 1 µM, first compound 0.1 µM
[21] = second compound 1 µM, first compound 0.316 µM
[22] = second compound 1 µM, first compound 1 µM
[23] = second compound 1 µM, first compound 3.16 µM
[24] = second compound 1 µM, first compound 10 µM
[25] = second compound 3.16 µM, first compound 0.0316 µM
[26] = second compound 3.16 µM, first compound 0.1 µM
[27] = second compound 3.16 µM, first compound 0.316 µM
[28] = second compound 3.16 µM, first compound 1 µM
[29] = second compound 3.16 µM, first compound 3.16 µM
[30] = second compound 3.16 µM, first compound 10 µM
[31] = second compound 10 µM, first compound 0.0316 µM
[32] = second compound 10 µM, first compound 0.1 µM
[33] = second compound 10 µM, first compound 0.316 µM
[34] = second compound 10 µM, first compound 1 µM
[35] = second compound 10 µM, first compound 3.16 µM
[36] = second compound 10 µM, first compound 10 µM
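Also: spheroids exposed to compounds for 7 days before readout.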

CC(=O)O[C@H]1C(=O)[C@@]2(C)[C@H]([C@H](OC(=O)c3ccccc3)[C@]3(O)C[C@H](OC(=O)[C@H](O)[C@@H](NC(=O)c4ccccc4)c4ccccc4)C(C)=C1C3(C)C)[C@]1(OC(C)=O)CO[C@@H]1C[C@@H]2O + CNC(=O)c1ccc(Nc2nc(OC3CCCC3)c3c(-c4ccc5nc(C)oc5c4)c[nH]c3n2)c(OC)c1
pIC50 (second compound 0.0316 µM): > 7.50
pIC50 (second compound 0.1 µM): > 7.50
pIC50 (second compound 0.316 µM): > 7.50
pIC50 (second compound 1 µM): > 7.50
pIC50 (second compound 3.16 µM): > 7.50
pIC50 (second compound 10 µM): > 7.50
viability, T/C [1]: 7.2%
viability, T/C [2]: 10.3%
viability, T/C [3]: 8.05%
viability, T/C [4]: 8.91%
viability, T/C [5]: 7.98%
viability, T/C [6]: 26.6%
viability, T/C [7]: 10.1%
viability, T/C [8]: 8.61%
viability, T/C [9]: 9.22%
viability, T/C [10]: 10.1%
viability, T/C [11]: 14.3%
viability, T/C [12]: 38%
viability, T/C [13]: 33.1%
viability, T/C [14]: 39.2%
viability, T/C [15]: 43.9%
viability, T/C [16]: 48.2%
viability, T/C [17]: 83%
viability, T/C [18]: 110%
viability, T/C [19]: 45.3%
viability, T/C [20]: 50.2%
viability, T/C [21]: 54.3%
viability, T/C [22]: 60.5%
viability, T/C [23]: 88.4%
viability, T/C [24]: 89.6%
viability, T/C [25]: 38.8%
viability, T/C [26]: 46.5%
viability, T/C [27]: 54.1%
viability, T/C [28]: 51.5%
viability, T/C [29]: 74.2%
viability, T/C [30]: 86.5%
viability, T/C [31]: 36.8%
viability, T/C [32]: 43.2%
viability, T/C [33]: 49.7%
viability, T/C [34]: 60.2%
viability, T/C [35]: 77.1%
viability, T/C [36]: 84.3%

CCc1c2c(nc3ccc(O)cc13)-c1cc3c(c(=O)n1C2)COC(=O)[C@]3(O)CC + CNC(=O)c1ccc(Nc2nc(OC3CCCC3)c3c(-c4ccc5nc(C)oc5c4)c[nH]c3n2)c(OC)c1
pIC50 (second compound 0.0316 µM): > 8.50
pIC50 (second compound 0.1 µM): > 8.50
pIC50 (second compound 0.316 µM): > 8.50
pIC50 (second compound 1 µM): > 8.50
pIC50 (second compound 3.16 µM): > 8.50
pIC50 (second compound 10 µM): > 8.50
viability, T/C (second compound 0.0316 µM, first compound 0.00316 µM): 27.4%
viability, T/C (second compound 0.0316 µM, first compound 0.01 µM): 16.7%
viability, T/C [1]: 12.8%
viability, T/C [2]: 5.45%
viability, T/C [3]: 4.91%
viability, T/C [4]: 1.19%
viability, T/C (second compound 0.1 µM, first compound 0.00316 µM): 21.7%
viability, T/C (second compound 0.1 µM, first compound 0.01 µM): 18.1%
viability, T/C [7]: 13.6%
viability, T/C [8]: 9.68%
viability, T/C [9]: 3.81%
viability, T/C [10]: 1.47%
viability, T/C (second compound 0.316 µM, first compound 0.00316 µM): 20.4%
viability, T/C (second compound 0.316 µM, first compound 0.01 µM): 17.1%
viability, T/C [13]: 10.5%
viability, T/C [14]: 6.75%
viability, T/C [15]: 2.62%
viability, T/C [16]: 1.9%
viability, T/C (second compound 1 µM, first compound 0.00316 µM): 24%
viability, T/C (second compound 1 µM, first compound 0.01 µM): 17.2%
viability, T/C [19]: 6.96%
viability, T/C [20]: 2.96%
viability, T/C [21]: 2.33%
viability, T/C [22]: 1.14%
viability, T/C (second compound 3.16 µM, first compound 0.00316 µM): 24.5%
viability, T/C (second compound 3.16 µM, first compound 0.01 µM): 16.7%
viability, T/C [25]: 7.28%
viability, T/C [26]: 4.75%
viability, T/C [27]: 2.45%
viability, T/C [28]: 0.84%
viability, T/C (second compound 10 µM, first compound 0.00316 µM): 22.6%
viability, T/C (second compound 10 µM, first compound 0.01 µM): 15.3%
viability, T/C [31]: 4.85%
viability, T/C [32]: 5.04%
viability, T/C [33]: 3.11%
viability, T/C [34]: 0.6%

O=c1[nH]cc(F)c(=O)[nH]1 + CNC(=O)c1ccc(Nc2nc(OC3CCCC3)c3c(-c4ccc5nc(C)oc5c4)c[nH]c3n2)c(OC)c1
pIC50 (second compound 0.0316 µM): 5.78
pIC50 (second compound 0.1 µM): 5.69
pIC50 (second compound 0.316 µM): 7.39
pIC50 (second compound 1 µM): > 7.50
pIC50 (second compound 3.16 µM): > 7.50
pIC50 (second compound 10 µM): > 7.50
viability, T/C [1]: 94.7%
viability, T/C [2]: 107%
viability, T/C [3]: 88.5%
viability, T/C [4]: 61.7%
viability, T/C [5]: 32.6%
viability, T/C [6]: 38.4%
viability, T/C [7]: 100%
viability, T/C [8]: 113%
viability, T/C [9]: 106%
viability, T/C [10]: 75.8%
viability, T/C [11]: 33.6%
viability, T/C [12]: 32.1%
viability, T/C [13]: 49.4%
viability, T/C [14]: 49.3%
viability, T/C [15]: 42.5%
viability, T/C [16]: 37.5%
viability, T/C [17]: 28.4%
viability, T/C [18]: 25.3%
viability, T/C [19]: 32.9%
viability, T/C [20]: 28.1%
viability, T/C [21]: 21.6%
viability, T/C [22]: 20.6%
viability, T/C [23]: 16.2%
viability, T/C [24]: 19.6%
viability, T/C [25]: 29.8%
viability, T/C [26]: 33%
viability, T/C [27]: 24.5%
viability, T/C [28]: 19.1%
viability, T/C [29]: 16.4%
viability, T/C [30]: 18.9%
viability, T/C [31]: 25.1%
viability, T/C [32]: 25.3%
viability, T/C [33]: 19.7%
viability, T/C [34]: 19.3%
viability, T/C [35]: 17.2%
viability, T/C [36]: 14.2%
